Laboratory results as given in US8119362B2, “Method of screening for compounds that can be used for the treatment of respiratory conditions” (Centre National de la Recherche Scientifique—Cnrs, priority 2007, dated 2012).

Molecular target: T1, human TASK-2 channel (Homo sapiens, UniProt O95279)
T1 construct: expressed in transfected cells; host or cells: HEK cells (Human Embryonic Kidney cells)
T1 sequence (O95279 1-499): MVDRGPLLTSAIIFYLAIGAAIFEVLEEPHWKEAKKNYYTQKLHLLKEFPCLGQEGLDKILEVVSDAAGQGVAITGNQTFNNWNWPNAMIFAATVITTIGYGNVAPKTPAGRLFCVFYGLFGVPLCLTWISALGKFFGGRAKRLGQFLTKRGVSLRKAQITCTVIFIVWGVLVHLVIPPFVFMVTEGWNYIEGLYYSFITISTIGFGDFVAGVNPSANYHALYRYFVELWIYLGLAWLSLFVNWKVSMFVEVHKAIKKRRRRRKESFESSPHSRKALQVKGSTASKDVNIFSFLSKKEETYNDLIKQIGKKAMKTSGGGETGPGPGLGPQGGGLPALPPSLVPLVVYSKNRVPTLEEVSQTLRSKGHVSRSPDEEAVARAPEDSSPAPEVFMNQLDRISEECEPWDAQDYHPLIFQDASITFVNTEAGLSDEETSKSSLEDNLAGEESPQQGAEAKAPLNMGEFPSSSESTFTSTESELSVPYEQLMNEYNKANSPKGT
Experiment: Patch-clamp (whole cell) recording of TASK-2 current in transfected HEK cells
Type: cell-based
Conditions: Doxapram at 0.9 mM in the external bath; HEK cells transfected with human TASK-2 (pIRES-CD8-hTASK2); voltage jumps; FIG. 4
Experimental: The following screening is used. HEK cells (Human Embryonic Kidney cells) are transfected with a plasmid containing complementary DNA from the gene of the human TASK-2 channel (pIRES-CD8-hTASK2) by the lipofectamine method. After 24 hours of culture, the TASK-2 currents are recorded using the voltage-clamp method (patch-clamp in whole cell configuration). The currents are activated by jumps in voltage from a rest potential at […] to variable values ranging from −80 to +45 mV.
The currents are recorded in whole cell configuration using an EPC-10 amplifier (HEKA). The <> pipette contains a solution of 95 K-gluconate, 30 mM KCl, 4.8 mM Na2HPO4, 1.2 mM NaH2PO4, 5 mM glucose, 2.38 mM MgCl2, 0.726 mM CaCl2, 1 mM EGTA, 3 mM ATP, pH 7.2. The external solution is a RINGER solution: 145 mM NaCl, 0.4 mM KH2PO4, 1.6 mM K2HPO4, 5 mM glucose, 1 mM MgCl2, 1.3 mM CaCl2, 5 mM HEPES, pH 7.4.
Different drugs may be applied at different concentrations by perfusion of the external bath and their effects are evaluated by the change in the currents compared with the control conditions.

reduction of the TASK-2 current: 25%
Structure (SMILES): CCN1CC(CCN2CCOCC2)C(c2ccccc2)(c2ccccc2)C1=O (stereo not shown) [Doxapram]
